Test results taken from article PMC8887546, “Design and Synthesis of Brain Penetrant Glycopeptide Analogues of PACAP With Neuroprotective Potential for Traumatic Brain Injury and Parkinsonism” (Frontiers in drug discovery, 2022).

Test system: Sprague Dawley rats, 6-OHDA lesion
Test: Striatal dopamine content, HPLC-EC (study 2)
Type: in vivo, rat
Conditions: more severe (40%) lesion, vs vehicle
Experimental: Rats were treated with 2LS98Lac or saline (vehicle) as outlined in the Schemes in Figures 9A,B via intraperitoneal (i.p.) injection (15 mg/kg). All animals were made hemi-parkinsonian with unilateral, striatal 6-hydroxydopamine (Sigma Aldrich, St. Louis, MO) injections. After surgery, behavioral assessments were done at 2- and 4-weeks post-surgery. 24 h after the last test animals were either euthanized and whole brains were harvested for future biochemical analysis or perfused and brains collected for immunohistochemistry and stereological assessment of tyrosine hydroxylase-positive (TH+) cells remaining in the SNc. In study 1: n = 16 each group were included, and all underwent the behavioral analysis: n = 16, and for the stereology in the SNc, n = 8 each group was used. In study 2: n = 23 each group were included. […] In the 2LS98Lac group, one video at 4 weeks was lost, reducing n = 22 in this specific analysis, and for the stereology, 2 brains were damaged during processing and could not be included in the stereology of the SNc, therefore […]. For biochemical subanalyses, n = 8 each group. For the microglial morphology subanalysis n = 7 each group.
FIGURE 9 | Evaluation of neuroprotection of the PACAP glycopeptide 2LS98Lac in rat Parkinson’s disease models. (A) Scheme for study 1, using a mild PD lesion. (B) Scheme for study 2, using a moderate PD lesion. […]

[2H]C([2H])([2H])C([2H])(C([2H])([2H])[2H])[C@]([2H])(NC(=O)[C@H](C)NC(=O)[C@H](C)NC(=O)[C@H](CC(C)C)NC(=O)[C@H](Cc1ccc(O)cc1)NC(=O)[C@H](CCCCN)NC(=O)[C@H](CCCCN)NC(=O)[C@@]([2H])(NC(=O)[C@H](C)NC(=O)[C@H](CC(C)C)NC(=O)[C@H](CCC(N)=O)NC(=O)[C@H](CCCCN)NC(=O)[C@H](CCCNC(=N)N)NC(=O)[C@H](Cc1ccc(O)cc1)NC(=O)[C@H](CCCNC(=N)N)NC(=O)[C@H](CO)NC(=O)[C@H](Cc1ccc(O)cc1)NC(=O)[C@H](CO)NC(=O)[C@H](CC(=O)O)NC(=O)[C@@H](NC(=O)[C@H](Cc1ccccc1)NC(=O)[C@@H](NC(=O)CNC(=O)[C@H](CC(=O)O)NC(=O)[C@H](CO)NC(=O)[C@@H](N)Cc1c[nH]cn1)[C@@H](C)CC)[C@@H](C)O)C([2H])(C([2H])([2H])[2H])C([2H])([2H])[2H])C(=O)N[C@@H](CC(C)C)C(=O)N[C@@H](CO[C@@H]1O[C@H](CO)[C@@H](O[C@@H]2O[C@H](CO)[C@H](O)[C@H](O)[C@H]2O)[C@H](O)[C@H]1O)C(N)=O [Compound 2LS98Lac] was tested, and the “Striatal DA content” value was “no significant difference”.
